The nature of the series: solubility in an organic solvent. The series is classed as physicochemical. To be noted: compared to a conventional electron-transporting material. The method, then: In addition, two properties of the naphthoquinone derivative of Formula 2 that was used in Example 1 was measured: solubility in an organic solvent and compatibility with a binder resin.

The record followed here is patent US7060405B2, “Naphthoquinone derivative and electrophotographic photoreceptor containing the same” (Samsung Electronics Co., Ltd., priority 2003, dated 2006).

Each structure is given as a SMILES string.

Consider `COc1ccc(C(=O)C2=C(c3ccccc3)C(=O)c3ccccc3C2=O)cc1` [Formula 2], for which the “solubility in an organic solvent” value is recorded as “improved”.
